Values belong to the compound of their own block, whether it stands above or below them.
System: 521955-158-R6-J3-PDC complex spheroid growth, % test/control
Experiment: Anticancer human tumor 521955-158-R6-J3-PDC patient-derived pancreatic carcinoma cell line growth inhibition [Asc]
Conditions: for IC50: curve of first compound; for viability, T/C: stronger effect = lower value
Summary of the method: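 Spheroid model: tumor line + HUVEC + hMSC. Single agents and combinations; top conc. at/near clinical Cmax (10 microM if undetermined), half-log dilutions. DMSO stocks at 800-fold test concentration.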

[1] = second compound 0.00949 µM, first compound 0.0316 µM
[2] = second compound 0.00949 µM, first compound 0.1 µM
[3] = second compound 0.00949 µM, first compound 0.316 µM
[4] = second compound 0.00949 µM, first compound 1 µM
[5] = second compound 0.00949 µM, first compound 3.16 µM
[6] = second compound 0.00949 µM, first compound 10 µM
[7] = second compound 0.03 µM, first compound 0.0316 µM
[8] = second compound 0.03 µM, first compound 0.1 µM
[9] = second compound 0.03 µM, first compound 0.316 µM
[10] = second compound 0.03 µM, first compound 1 µM
[11] = second compound 0.03 µM, first compound 3.16 µM
[12] = second compound 0.03 µM, first compound 10 µM
[13] = second compound 0.0949 µM, first compound 0.0316 µM
[14] = second compound 0.0949 µM, first compound 0.1 µM
[15] = second compound 0.0949 µM, first compound 0.316 µM
[16] = second compound 0.0949 µM, first compound 1 µM
[17] = second compound 0.0949 µM, first compound 3.16 µM
[18] = second compound 0.0949 µM, first compound 10 µM
[19] = second compound 0.3 µM, first compound 0.0316 µM
[20] = second compound 0.3 µM, first compound 0.1 µM
[21] = second compound 0.3 µM, first compound 0.316 µM
[22] = second compound 0.3 µM, first compound 1 µM
[23] = second compound 0.3 µM, first compound 3.16 µM
[24] = second compound 0.3 µM, first compound 10 µM
[25] = second compound 0.949 µM, first compound 0.0316 µM
[26] = second compound 0.949 µM, first compound 0.1 µM
[27] = second compound 0.949 µM, first compound 0.316 µM
[28] = second compound 0.949 µM, first compound 1 µM
[29] = second compound 0.949 µM, first compound 3.16 µM
[30] = second compound 0.949 µM, first compound 10 µM
[31] = second compound 3 µM, first compound 0.0316 µM
[32] = second compound 3 µM, first compound 0.1 µM
[33] = second compound 3 µM, first compound 0.316 µM
[34] = second compound 3 µM, first compound 1 µM
[35] = second compound 3 µM, first compound 3.16 µM
[36] = second compound 3 µM, first compound 10 µM
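Further: spheroids exposed to compounds for 7 days.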
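Wherever viability, T/C is given: 100% = DMSO vehicle control wells.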

IC50 (second compound 0.00949 µM): 0.518 µM | IC50 (second compound 0.03 µM): 0.329 µM | IC50 (second compound 0.0949 µM): 0.214 µM | IC50 (second compound 0.3 µM): 0.223 µM | IC50 (second compound 0.949 µM): 0.903 µM | IC50 (second compound 3 µM): < 0.0316 µM
Structure (SMILES): C#Cc1c(F)ccc2cc(O)cc(-c3ncc4c(N5CC6CCC(C5)N6)nc(OCC56CCCN5CC(F)C6)nc4c3F)c12 (stereo not drawn) + CCN1C(C(=O)NC23CCC(C(=O)O)(CC2)CC3)C(c2cccc(Cl)c2F)C2(C(=O)Nc3cc(Cl)ccc32)C12CCCCC2
viability, T/C [1]: 76.9% | viability, T/C [2]: 60.5% | viability, T/C [3]: 50.2% | viability, T/C [4]: 49.1% | viability, T/C [5]: 39.3% | viability, T/C [6]: 28.2% | viability, T/C [7]: 72.2% | viability, T/C [8]: 58% | viability, T/C [9]: 47.1% | viability, T/C [10]: 45.4% | viability, T/C [11]: 41.4% | viability, T/C [12]: 31.7% | viability, T/C [13]: 81.6% | viability, T/C [14]: 55.8% | viability, T/C [15]: 46.5% | viability, T/C [16]: 40.2% | viability, T/C [17]: 43.6% | viability, T/C [18]: 30.3% | viability, T/C [19]: 72.1% | viability, T/C [20]: 65.9% | viability, T/C [21]: 42.4% | viability, T/C [22]: 40.4% | viability, T/C [23]: 39.2% | viability, T/C [24]: 29.3% | viability, T/C [25]: 68.3% | viability, T/C [26]: 66% | viability, T/C [27]: 51% | viability, T/C [28]: 53% | viability, T/C [29]: 41.7% | viability, T/C [30]: 34.2% | viability, T/C [31]: 57.9% | viability, T/C [32]: 48.4% | viability, T/C [33]: 51% | viability, T/C [34]: 41.3% | viability, T/C [35]: 50.4% | viability, T/C [36]: 25.7%

IC50 (second compound 0.00949 µM): 4.82 µM | IC50 (second compound 0.03 µM): 5.19 µM | IC50 (second compound 0.0949 µM): 4.75 µM | IC50 (second compound 0.3 µM): 5.35 µM | IC50 (second compound 0.949 µM): 5.09 µM | IC50 (second compound 3 µM): 5.58 µM
Structure (SMILES): C=C(F)C(=O)N1CCN(c2nc(OCC3CCCN3C)nc3c2CCN(c2cccc4cccc(Cl)c24)C3)CC1CC#N (stereo not drawn) + CCN1C(C(=O)NC23CCC(C(=O)O)(CC2)CC3)C(c2cccc(Cl)c2F)C2(C(=O)Nc3cc(Cl)ccc32)C12CCCCC2
viability, T/C [1]: 107% | viability, T/C [2]: 98.7% | viability, T/C [3]: 102% | viability, T/C [4]: 95.6% | viability, T/C [5]: 79.4% | viability, T/C [6]: 0.48% | viability, T/C [7]: 117% | viability, T/C [8]: 108% | viability, T/C [9]: 111% | viability, T/C [10]: 91.7% | viability, T/C [11]: 90.2% | viability, T/C [12]: 2.78% | viability, T/C [13]: 113% | viability, T/C [14]: 121% | viability, T/C [15]: 108% | viability, T/C [16]: 94% | viability, T/C [17]: 81.8% | viability, T/C [18]: 0.48% | viability, T/C [19]: 109% | viability, T/C [20]: 97.7% | viability, T/C [21]: 96% | viability, T/C [22]: 92.4% | viability, T/C [23]: 91.6% | viability, T/C [24]: 0.41% | viability, T/C [25]: 103% | viability, T/C [26]: 110% | viability, T/C [27]: 103% | viability, T/C [28]: 113% | viability, T/C [29]: 84.9% | viability, T/C [30]: 0.49% | viability, T/C [31]: 94% | viability, T/C [32]: 109% | viability, T/C [33]: 102% | viability, T/C [34]: 86.2% | viability, T/C [35]: 101% | viability, T/C [36]: 0.33%

IC50 (second compound 0.00949 µM): > 10 µM | IC50 (second compound 0.03 µM): > 10 µM | IC50 (second compound 0.0949 µM): > 10 µM | IC50 (second compound 0.3 µM): > 10 µM | IC50 (second compound 0.949 µM): > 10 µM | IC50 (second compound 3 µM): > 10 µM
Structure (SMILES): C=CC(=O)N1CCN(c2nc(=O)n(-c3c(C)ccnc3C(C)C)c3nc(-c4c(O)cccc4F)c(F)cc23)C(C)C1 (stereo not drawn) + CCN1C(C(=O)NC23CCC(C(=O)O)(CC2)CC3)C(c2cccc(Cl)c2F)C2(C(=O)Nc3cc(Cl)ccc32)C12CCCCC2
viability, T/C [1]: 121% | viability, T/C [2]: 111% | viability, T/C [3]: 107% | viability, T/C [4]: 106% | viability, T/C [5]: 114% | viability, T/C [6]: 109% | viability, T/C [7]: 94.3% | viability, T/C [8]: 113% | viability, T/C [9]: 103% | viability, T/C [10]: 114% | viability, T/C [11]: 101% | viability, T/C [12]: 95.7% | viability, T/C [13]: 119% | viability, T/C [14]: 91.2% | viability, T/C [15]: 118% | viability, T/C [16]: 103% | viability, T/C [17]: 108% | viability, T/C [18]: 101% | viability, T/C [19]: 101% | viability, T/C [20]: 115% | viability, T/C [21]: 107% | viability, T/C [22]: 112% | viability, T/C [23]: 109% | viability, T/C [24]: 103% | viability, T/C [25]: 108% | viability, T/C [26]: 105% | viability, T/C [27]: 102% | viability, T/C [28]: 107% | viability, T/C [29]: 121% | viability, T/C [30]: 92.2% | viability, T/C [31]: 91.8% | viability, T/C [32]: 95.8% | viability, T/C [33]: 97.7% | viability, T/C [34]: 92.5% | viability, T/C [35]: 102% | viability, T/C [36]: 94.3%

IC50 (second compound 0.00949 µM): > 1 µM | IC50 (second compound 0.03 µM): > 1 µM | IC50 (second compound 0.0949 µM): > 1 µM | IC50 (second compound 0.3 µM): > 1 µM | IC50 (second compound 0.949 µM): > 1 µM | IC50 (second compound 3 µM): > 1 µM
Structure (SMILES): CNC(C)C(=O)NC1CN(S(=O)(=O)c2cccc(S(=O)(=O)N3CCC4CCC(C(=O)NC(c5ccccc5)c5ccccc5)N4C(=O)C(NC(=O)C(C)NC)C3)c2)CCC2CCC(C(=O)NC(c3ccccc3)c3ccccc3)N2C1=O (stereo not drawn) + CCN1C(C(=O)NC23CCC(C(=O)O)(CC2)CC3)C(c2cccc(Cl)c2F)C2(C(=O)Nc3cc(Cl)ccc32)C12CCCCC2
viability, T/C (second compound 0.00949 µM, first compound 0.00316 µM): 110% | viability, T/C (second compound 0.00949 µM, first compound 0.01 µM): 95.2% | viability, T/C [1]: 83.7% | viability, T/C [2]: 89.8% | viability, T/C [3]: 89.7% | viability, T/C [4]: 89.7% | viability, T/C (second compound 0.03 µM, first compound 0.00316 µM): 91.8% | viability, T/C (second compound 0.03 µM, first compound 0.01 µM): 96% | viability, T/C [7]: 113% | viability, T/C [8]: 101% | viability, T/C [9]: 69% | viability, T/C [10]: 81.5% | viability, T/C (second compound 0.0949 µM, first compound 0.00316 µM): 102% | viability, T/C (second compound 0.0949 µM, first compound 0.01 µM): 89.9% | viability, T/C [13]: 92.3% | viability, T/C [14]: 86.9% | viability, T/C [15]: 76.9% | viability, T/C [16]: 86.2% | viability, T/C (second compound 0.3 µM, first compound 0.00316 µM): 96.2% | viability, T/C (second compound 0.3 µM, first compound 0.01 µM): 111% | viability, T/C [19]: 100% | viability, T/C [20]: 99.8% | viability, T/C [21]: 93.5% | viability, T/C [22]: 95% | viability, T/C (second compound 0.949 µM, first compound 0.00316 µM): 106% | viability, T/C (second compound 0.949 µM, first compound 0.01 µM): 85.1% | viability, T/C [25]: 93.7% | viability, T/C [26]: 101% | viability, T/C [27]: 96.8% | viability, T/C [28]: 109% | viability, T/C (second compound 3 µM, first compound 0.00316 µM): 95% | viability, T/C (second compound 3 µM, first compound 0.01 µM): 96% | viability, T/C [31]: 108% | viability, T/C [32]: 86.2% | viability, T/C [33]: 96.6% | viability, T/C [34]: 80.8%

Source: PubChem BioAssay AID1963451 (Molecular Pharmacology Branch, DTP, NCI, 2024)
